Patent US7563781B2, “Triazolopyrimidine derivatives” (Janssen Pharmaceutica NV, priority 2006, dated 2009)
Like-named read-outs stand apart in the source and are kept apart here.

Key:
[1] = molecular target: T1, Focal Adhesion Kinase (full-length Flag-tagged human FAK) (Homo sapiens, UniProt Q05397); experiment: in vitro FAK ELISA kinase assay; assay type: biochemical; details: for inhibition at 10 µM: read-out: FAK % Inhib ave: 10 uM
T1 construct: a purified recombinant full-length Flag-tagged human FAK protein; Flag; made in house; host or cells: baculovirus infected insect cells
Procedure: Compound effects on the tyrosine kinase activity of Focal Adhesion Kinase were assessed with an in vitro FAK ELISA kinase assay. This assay measures the incorporation of phosphate from ATP into a FAK substrate protein using an antibody specific for phospho-tyrosine.
500 ng of FAKsubstrate, a purified recombinant fusion protein of GST and a 73 amino acid region surrounding the Tyr397 human FAK autophosphorylation site, was coated in a high-protein binding polystyrene 96 well plate overnight in a buffer containing 50 mM Hepes, pH 7.5, 150 mM NaCl, 0.1 mM Na-oVO4, 0.1 mM NaF and 1 protease inhibitor tablet/10 mL (Complete Mini-EDTA-free, Roche). The next day this solution was removed and the wells were incubated with 0.2% BSA in 50 mM Hepes, pH 7.5, 150 mM NaCl, 0.2 mM PMSF for 1 hour at 30° C. to block unoccupied protein binding sites. The wells were then washed with 50 mM Hepes, pH 7.5, 150 mM NaCl, 0.1% Tween 20. The kinase reaction was performed with 25 ng/well of FAK enzyme (a purified recombinant full-length Flag-tagged human FAK protein made in baculovirus infected insect cells) in 0.1 mL of a buffer containing 25 mM Hepes, pH 7.5, 5 mM MgCl2, 0.5 mM MnCl2, 10 uM NaoVO4, 0.2 mM PMSF. Compounds were added from 30% DMSO stock solutions for a screening concentration of 10 uM or IC50 determinations from 50 uM in half-log dilutions. The reaction is initiated with addition of ATP to a final concentration of 2 uM and incubated at 30° C. for 1 hour. Following the kinase reaction step, the wells were washed and incubated with 50 ng of Horseradish Peroxidase conjugated anti-phosphotyrosine antibody (PT-66 HRP, Sigma) in 0.1 mL wash buffer for 1 hour at 30° C. Wells were then washed and 0.1 mL HRP substrate, Tetra-methyl Benzidine (Sigma) was added and the color reaction allowed to proceed for 2-3 minutes followed by the addition of 0.1 mL of 1N H2SO4 to stop the HRP reaction. Percent inhibition of FAK kinase activity was calculated by comparing compound containing wells to wells treated with diluent only. Background was subtracted from all wells and was defined as the activity of FAK using 500 ng/well of BSA as a substrate. IC50 values were obtained using Prism data analysis software.

[2] = molecular target: T2, CAK complex (human Cdk7, human Cyclin H, MAT-1) (Homo sapiens, UniProt P50613); experiment: in vitro time-resolved-fluorescence assay for the CAK kinase activity; assay type: biochemical; details: compound 20 uM; for inhibition at 20 µM: read-out: CAK % inhib
T2 construct: made in house; host or cells: SF-900 insect cells co-infected with Flag-Cdk7 and Bab-Cyclin H baculoviruses
Text: Cyclin Dependent Kinase Activating Kinase (CAK) is a complex of proteins that phosphorylates a well-conserved threonine (Thr) residue in all mammalian cyclin dependent kinases (cdks). The CAK complex can also phosphorylate several components of the transcriptional machinery, such as the C-terminal domain (CTD) of RNA polymerase II in the TFIIH transcription complex. The CAK complex localizes to the nucleus, and is composed of three proteins: Cdk7, Cyclin H, and MAT-1. The exemplified method teaches the cloning and expression CAK subunits, particularly a human Cdk7 and a human Cyclin H. The method of the present invention exemplified herein is equally applicable to the cloning and expression of any CAK subunit, such as variants, structural or functional polymorphisms of the human Cdk7 or the human Cyclin H, or their orthologs in other animals such as rat, mouse, pig, dog and monkey.
The CAK complex was purified from co-infected SF-900 insect cells at 48 hours post infection by batch immunoaffinity purification. The infected cells were pelleted by centrifugation and lysed in 1/10 of the culture volume in a solution containing 50 mM Hepes pH 7.5, 10 mM MgCl2, 1 mM DTT, 10 mM Beta-Glycerol phosphate, 20 uM Na-oVO4, 0.2 mM PMSF and 1 μg/mL each of leupeptin, aprotinin, and pepstatin on ice. Cells were mechanically lysed by trituration through a 22-gauge needle followed by sonication or alternately by nitrogen cavitation. The lysed cells were centrifuged at 50,000×G for 1 hour at 4° C. to remove debris and the supernatant was applied to 1/10 volume of prewashed Flag-M2 immunoaffinity resin (Sigma). The CAK complex, by nature of the Flag tagged Cdk7 protein, was allowed to bind to the Flag antibody of the resin overnight at 4° C. with gentle rocking. The resin was washed 4 times with 5 resin volumes of lysis buffer and the bound proteins were eluted by competition with 0.5 mg/mL Flag peptide ([…], American Peptide Co, Inc., SEQ ID NO: 16) in a total of 2 resin volumes. To remove the Flag peptide, the eluted material was applied to PD-10 gel filtration columns (Pharmacia) under conditions recommended by the manufacturer.
Measurement of CAK kinase activity was accomplished using an antibody methodology in which a Europium labeled antibody binds preferentially to serine phosphorylated GST-CTD substrate. The long-lived europium label fluorescence allows a greater signal-to-noise ratio due to the delay in reading the emission wavelength, thereby eliminating signals from immediate fluorescence and fluorescent pharmaceutical screening compounds.
The time-resolved-fluorescence assay for the CAK kinase activity is performed as follows. In a well of a black glutathione coated 96 well micro titer plate (Pierce Chemical, No. 15360), the following reagents were added: 1) 25 ul substrate solution containing 500 ng purified GST-CTD in a buffer having 50 mM Hepes pH 7.5, 10 mM MgCl2, 1 mM DTT, 0.2 mM PMSF, 40 uM Na-oVO4, and 22 uM ATP (as a background control, the buffer, including ATP but not substrate was added); 2) 2.5 ul of screening compounds in a diluent containing 30% DMSO/25 mM Hepes pH7.5 (As a control, the diluent only was added. Typically the final concentration of compound is 1 uM); and 3) 250 ng CAK enzyme complex in enzyme buffer containing 25 ul of 50 mM Hepes pH 7.5, 10 mM MgCl2, 1 mM DTT, 0.2 mM PMSF, and 40 uM Na-oVO4. The micro titer plate was shaken for 2 minutes on a titer plate shaker and allowed to incubate at 30° C. for 20 minutes.
Subsequently, Kinase Stop Solution (75 mM EDTA, 0.2 mM PMSF, 1 mM DTT, 120 uM Na oVO4 in PBS) was added (50 ul/well). The plate was shaken for 2 minutes and incubated overnight at room temperature to allow substrate binding to the wells. The plate contents were flicked out, and the wells of the plate were washed 4 times with 350 ul of wash buffer (Delphia wash buffer, Perkin-Elmer, Inc.). The plate was tapped dry. […]

T1 sequence (Q05397 whole entry): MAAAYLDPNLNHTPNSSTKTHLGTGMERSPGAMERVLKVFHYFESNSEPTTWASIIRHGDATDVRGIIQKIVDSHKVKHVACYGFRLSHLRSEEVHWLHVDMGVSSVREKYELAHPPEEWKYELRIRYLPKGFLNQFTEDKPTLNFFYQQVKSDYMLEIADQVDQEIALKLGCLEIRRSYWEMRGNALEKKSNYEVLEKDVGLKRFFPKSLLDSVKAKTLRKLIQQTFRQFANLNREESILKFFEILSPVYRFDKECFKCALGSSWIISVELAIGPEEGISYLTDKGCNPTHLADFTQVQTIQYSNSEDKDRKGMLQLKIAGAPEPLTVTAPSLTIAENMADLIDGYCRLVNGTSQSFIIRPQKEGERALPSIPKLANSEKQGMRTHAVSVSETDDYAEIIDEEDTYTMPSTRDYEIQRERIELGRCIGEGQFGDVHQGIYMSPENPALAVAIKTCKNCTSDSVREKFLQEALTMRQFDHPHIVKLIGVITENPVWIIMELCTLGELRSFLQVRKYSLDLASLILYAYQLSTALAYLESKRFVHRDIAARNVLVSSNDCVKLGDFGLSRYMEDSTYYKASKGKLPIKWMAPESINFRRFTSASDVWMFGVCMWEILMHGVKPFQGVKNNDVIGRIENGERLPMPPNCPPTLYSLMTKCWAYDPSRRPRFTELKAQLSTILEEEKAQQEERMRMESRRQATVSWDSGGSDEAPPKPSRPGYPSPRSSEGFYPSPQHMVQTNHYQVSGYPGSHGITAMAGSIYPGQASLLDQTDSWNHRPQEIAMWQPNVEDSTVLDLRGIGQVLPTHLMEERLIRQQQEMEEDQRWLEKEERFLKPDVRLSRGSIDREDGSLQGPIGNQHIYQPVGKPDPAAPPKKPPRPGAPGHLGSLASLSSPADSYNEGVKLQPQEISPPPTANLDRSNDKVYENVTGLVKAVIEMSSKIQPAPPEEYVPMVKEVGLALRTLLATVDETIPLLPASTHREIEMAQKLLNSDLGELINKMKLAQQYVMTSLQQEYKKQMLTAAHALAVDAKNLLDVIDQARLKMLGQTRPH
T2 sequence (P50613 with tags, fused parts or gaps): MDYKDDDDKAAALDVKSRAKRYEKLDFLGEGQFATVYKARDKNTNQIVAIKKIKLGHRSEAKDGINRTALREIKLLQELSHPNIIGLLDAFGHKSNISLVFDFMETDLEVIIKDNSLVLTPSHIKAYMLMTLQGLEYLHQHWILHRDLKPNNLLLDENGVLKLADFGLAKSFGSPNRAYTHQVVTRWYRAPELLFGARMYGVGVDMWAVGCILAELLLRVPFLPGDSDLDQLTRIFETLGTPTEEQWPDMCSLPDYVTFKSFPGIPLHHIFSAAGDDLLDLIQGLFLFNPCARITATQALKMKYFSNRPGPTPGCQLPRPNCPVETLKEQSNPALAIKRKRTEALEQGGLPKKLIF
T2 sequence (as listed by the source partner): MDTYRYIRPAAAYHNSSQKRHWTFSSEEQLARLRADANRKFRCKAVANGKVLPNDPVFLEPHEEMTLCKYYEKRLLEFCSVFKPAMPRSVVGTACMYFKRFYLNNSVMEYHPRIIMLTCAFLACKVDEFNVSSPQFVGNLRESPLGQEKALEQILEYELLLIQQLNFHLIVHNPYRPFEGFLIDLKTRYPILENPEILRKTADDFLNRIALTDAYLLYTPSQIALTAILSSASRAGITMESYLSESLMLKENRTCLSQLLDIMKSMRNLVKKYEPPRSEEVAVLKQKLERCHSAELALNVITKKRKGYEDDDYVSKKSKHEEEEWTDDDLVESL

Row | inhibition at 10 µM ([1]; compound 10 uM, ATP 2 uM) [%] | inhibition at 20 µM [2] [%] | FAK % Inhib ave: 10 uM ([1]; compound 10 uM, ATP 2 uM) [%] | CAK % inhib; 20 uM [2] [%] | Structure (SMILES) | inhibition at 10 µM [1] [%]
1 | 12.2 | 20.7 | – | – | CN(Cc1ccccc1Nc1ncc2nnn(-c3ccc4c(c3)CCC4)c2n1)C1CCCCC1 [Compound 18, {2-[(Cyclohexyl-methyl-amino)-methyl]-phenyl}-(3-indan-5-yl-3H-[1,2,3]triazolo[4,5-d]pyrimidin-5-yl)-amine] | –
2 | 68.8 | -63.7 | – | – | CCN(CC)CCNC(=O)c1ccc(-n2nnc3cnc(Nc4ccc5c(c4)CCC5)nc32)cc1 [Compound 19, N-(2-Diethylamino-ethyl)-4-[5-(indan-5-ylamino)-[1,2,3]triazolo[4,5-d]pyrimidin-3-yl]-benzamide] | –
3 | 13 | 12.5 | – | – | CN(Cc1ccccc1-n1nnc2cnc(Nc3ccc4c(c3)CCC4)nc21)C1CCCCC1 [Compound 20, (3-{2-[(Cyclohexyl-methyl-amino)-methyl]-phenyl}-3H-[1,2,3]triazolo[4,5-d]pyrimidin-5-yl)-indan-5-yl-amine] | –
4 | 19 | 23.3 | – | – | CN(Cc1ccccc1Nc1ncc2nnn(-c3ccccc3CN(C)C3CCCCC3)c2n1)C1CCCCC1 [Compound 21, {2-[(Cyclohexyl-methyl-amino)-methyl]-phenyl}-(3-{2-[(cyclohexyl-methyl-amino)-methyl]-phenyl}-3H-[1,2,3]triazolo[4,5-d]pyrimidin-5-yl)-amine] | –
5 | 98.9 | 96.9 | – | – | CCN(CC)CCNC(=O)c1ccc(Nc2ncc3nnn(-c4ccc5c(c4)CCC5)c3n2)cc1 [Compound 22, N-(2-Diethylamino-ethyl)-4-(3-indan-5-yl-3H-[1,2,3]triazolo[4,5-d]pyrimidin-5-ylamino)-benzamide] | –
6 | 13 | 43.5 | – | – | c1ccc(-c2cccc(Nc3ncc4nnn(-c5ccc6c(c5)CCC6)c4n3)c2)cc1 [Compound 23, Biphenyl-3-yl-(3-indan-5-yl-3H-[1,2,3]triazolo[4,5-d]pyrimidin-5-yl)-amine] | –
7 | 30 | 21 | – | – | CCOC(=O)Cc1ccc(Nc2ncc3nnn(-c4ccc5c(c4)CCC5)c3n2)cc1 [Compound 25, [4-(3-Indan-5-yl-3H-[1,2,3]triazolo[4,5-d]pyrimidin-5-ylamino)-phenyl]-acetic acid ethyl ester] | –
8 | 13 | 25.9 | – | – | CCOC(=O)c1cccc(Nc2ncc3nnn(-c4ccc5c(c4)CCC5)c3n2)c1 [Compound 26, 3-(3-Indan-5-yl-3H-[1,2,3]triazolo[4,5-d]pyrimidin-5-ylamino)-benzoic acid ethyl ester] | –
9 | 74.4 | 21.4 | – | – | CNC(=O)c1cccc(Nc2ncc3nnn(-c4ccc5c(c4)CCC5)c3n2)c1 [Compound 27, 3-(3-Indan-5-yl-3H-[1,2,3]triazolo[4,5-d]pyrimidin-5-ylamino)-N-methyl-benzamide] | –
10 | 16 | 54.7 | – | – | CCOC(=O)/C=C/c1ccc(Nc2ncc3nnn(-c4ccc5c(c4)CCC5)c3n2)cc1 [Compound 28, 3-[4-(3-Indan-5-yl-3H-[1,2,3]triazolo[4,5-d]pyrimidin-5-ylamino)-phenyl]-acrylic acid ethyl ester] | –
11 | 11 | 16.3 | – | – | c1cc(-c2csnn2)ccc1Nc1ncc2nnn(-c3ccc4c(c3)CCC4)c2n1 [Compound 29, (3-Indan-5-yl-3H-[1,2,3]triazolo[4,5-d]pyrimidin-5-yl)-(4-[1,2,3]thiadiazol-4-yl-phenyl)-amine] | –
12 | 30 | 38.6 | – | – | CN(C)CC(O)COc1ccc(Nc2ncc3nnn(C4CCC(C(=O)O)CC4)c3n2)cc1 (stereo not shown) [Compound 30, 4-{5-[4-(3-Dimethylamino-2-hydroxy-propoxy)-phenylamino]-[1,2,3]triazolo[4,5-d]pyrimidin-3-yl}-cyclohexane-carboxylic acid] | –
13 | 21.4 | 32.9 | – | – | CN(C)CC(O)COc1ccc(Nc2ncc3nnn(C4CCCC(C(=O)O)C4)c3n2)cc1 (stereo not shown) [Compound 31, 3-{5-[4-(3-Dimethylamino-2-hydroxy-propoxy)-phenylamino]-[1,2,3]triazolo[4,5-d]pyrimidin-3-yl}-cyclohexanecar-boxylic acid] | –
14 | 30.2 | 42 | – | – | CCN(CC)CCOC(=O)c1ccc(Nc2ncc3nnn(-c4ccc5c(c4)CCC5)c3n2)cc1 [Compound 32, 4-(3-Indan-5-yl-3H-[1,2,3]triazolo[4,5-d]pyrimidin-5-ylamino)-benzoic acid 2-diethylamino-ethyl ester] | –
15 | – | – | 28.57 | 42.00 | CCN(CC)CCOC(=O)c1ccc(Nc2ncc3nnn(-c4ccc5c(c4)CCC5)c3n2)cc1 [Compound 33, 4-(3-Indan-5-yl-3H-[1,2,3]triazolo[4,5-d]pyrimidin-5-ylamino)-benzoic acid 2-diethylamino-ethyl ester] | –
16 | 25 | 19 | – | – | CCCCNS(=O)(=O)c1cccc(-n2nnc3cnc(Nc4cc(OC)c(OC)c(OC)c4)nc32)c1 [Compound 34, N-Butyl-3-[5-(3,4,5-trimethoxy-phenylamino)-[1,2,3]triazolo[4,5-d]pyrimidin-3-yl]-benzene-sulfonamide] | –

Row | Structure (SMILES) | inhibition at 10 µM ([1]; compound 10 uM, ATP 2 uM) [%] | inhibition at 20 µM [2] [%] | FAK % Inhib ave: 10 uM ([1]; compound 10 uM, ATP 2 uM) [%] | CAK % inhib; 20 uM [2] [%] | inhibition at 10 µM [1] [%]
17 | CCOP(=O)(Cc1ccc(Nc2ncc3nnn(-c4ccc5c(c4)CCC5)c3n2)cc1)OCC [Compound 24, [4-(3-Indan-5-yl-3H-[1,2,3]triazolo[4,5-d]pyrimidin-5-ylamino)-benzyl]-phosphonic acid diethyl ester] | – | 24.7 | – | – | 34
